Experimental data reported in patent publication US9782399B2, “Pharmaceutical compositions which inhibit FKBP52-mediated regulation of androgen receptor function and methods of using same” (The United States of America, as represented by the …, priority 2009, dated 2017).

Test system: FKBP52-enhanced AR function
Experiment: AR-mediated luciferase reporter assay in 52KO MEF cells
Type: cell-based, murine
Conditions: compound 1 hour, then DHT 16 hours
Method: FIG. 5B is a bar graph showing data from an experiment where 52KO MEF cells were treated at 50% confluency with a range of concentrations of Compound 2, and cell numbers were counted by trypan blue exclusion after 24 hours. FIG. 5C depicts Western blots on the same cell lysates from FIG. 5B, with compound 2 concentrations starting at 0, and increasing from about 0.1, 1, 10, to 100 μM.
To further characterize the compounds of interest selected from the yeast library assay, the inventors created a mammalian model system, comprising a receptor-mediated luciferase reporter assay, using in a murine embryonic fibroblast cell line (MEF) which has the gene for FKBP52 knocked out (52KO MEFs). […] To control for specificity and general toxicity, the inventors assessed the effects of the inhibitors on receptor function in the absence of FKBP52. […] The half maximal lethal dose (LD50) was also determined for all cell types used in these studies. The LD50 was determined by performing dose response curves in which the measure of toxicity will be cell death (via trypan blue exclusion). […]
β-galactosidase activity was measured by addition of 100 μl Tropix Gal-Screen assay reagent (Applied Biosystems, Foster City, Calif.) to about 6 μl lysate in an opaque 96-well plate. […]

Cc1ccc(NC(=O)c2ccccc2C(=O)O)cc1C [Compound 1]
inhibition of FKBP52-enhanced AR function in mammalian cells: consistent from yeast to mammalian cells
